How the values were obtained:
[1] = tested on: passive cutaneous anaphylaxis (PCA); assay: IgE-mediated passive cutaneous anaphylaxis (PCA) test in rats, oral administration; assay type: in vivo; settings: rat PCA, p.o., pretreatment time 15'; KB = dose reducing to one half the activity of the sensitizing serum; lower = more active
Description: The compounds of the invention have anti-allergic activity, and are therefore useful in the prevention and treatment of all the affections of allergic origin, e.g. bronchial asthma, allergic rhinitis, hay fever, urticaria and dermatosis. The anti-allergic activity of the compounds of the invention is shown, e.g., by the first that they are active in the passive cutaneous anaphylaxis (PCA) test in rats, according to Goose J. and Blair A. M. J. N. (Immunology, 16, 749, 1969).
The activity data are expressed in terms of KB defined as the dose of active compound capable of reducing to one half the activity of the serum used for the sensitization:
B=dose of antagonist compound expressed in mg/kg;
DR=dose ratio: antilogarithm of the distance between the Log dose effect functions of the scrum with and without antagonist (J. H. Gaddum et al, Exp. Physiol., 1955, 40, 49).
The KB is adopted here because this value is independent both of the dose of the drug and the reagin concentration used for the sensitization.
The lower the KB value, the higher the anti-allergic activity.
The anti-allergic activity was determined e.g. by the inhibition of the IgE-mediated PCA according to Goose J. and Blair A. M. J. N. (Immunology, 16, 749, 1969) using homocytotropic antibodies raised in rats following the method of Mota I., Immunology, 7, 681, (1964).
The tested compounds were administered per os (p.o) 15 minutes before the administration of the antigen: at least 6 rats were used for each dose.

[2] = approximate acute toxicity (LD50) in the mouse, per os; settings: in vivo, po, single administration of increasing doses, measured on the seventh day
Protocol: For example, the approximate acute toxicity (LD50) of the compound 2-trans-(2-phenyl-ethenyl)-3-propyl-4-oxo-4H-pyrido(1,2-a)pyrimidine-7-carboxylic acid in the mouse, determined with single adminstration of increasing doses and measured on the seventh day of treatment is per os higher than 800 mg/kg. Analogous toxicity data have been found for the other compounds of the invention.

| SMILES | Anti-allergic activity KB [1] [mg/kg] | LD50 at 168 h [2] [mg/kg] |
| --- | --- | --- |
| CCCc1c(/C=C/c2cccc(OC)c2OC)nc2n(c1=O)C1CC1(C(=O)O)C=C2 (stereo not drawn) [FCE 20461, 2-trans-[2-(2,3-dimethoxy-phenyl)-ethenyl]-3-propyl-6,7-methylen-4-oxo-4H-pyrido[1,2-a]pyrimidine-7-carboxylic acid] | 1.22 | – |
| CCCc1c(/C=C/c2ccccc2)nc2n(c1=O)C1CC1(C(=O)O)C=C2 (stereo not drawn) [FCE 20188, 2-trans-(2-phenyl-ethenyl)-3-propyl-6,7-methylen-4-oxo-4H-pyrido[1,2-a]pyrimidine-7-carboxylic acid] | 2.34 | – |
| CCCc1c(/C=C/c2cccc(OC)c2)nc2ccc(C(=O)O)cn2c1=O [FCE 20183, 2-trans-[2-(3-methoxy-phenyl)-ethenyl]-3-propyl-4-oxo-4H-pyrido[1,2-a]pyrimidine-7-carboxylic acid] | 1.48 | – |
| CCCc1c(/C=C/c2ccccc2)nc2ccc(C(=O)O)cn2c1=O [K 13808, 2-trans-(2-phenyl-ethenyl)-3-propyl-4-oxo-4H-pyrido[1,2-a]pyrimidine-7-carboxylic acid] | 2.16 | > 800 |
| CCc1c(/C=C/c2cccc(OC)c2)nc2n(c1=O)C1CC1(C(=O)O)C=C2 (stereo not drawn) [FCE 20509, 2-trans-[2-(3-methoxy-phenyl)-ethenyl]-3-ethyl-6,7-methylen-4-oxo-4H-pyrido[1,2-a]pyrimidine-7-carboxylic acid] | 0.61 | – |
| CCCc1c(/C=C/c2ccccc2C)nc2ccc(C(=O)O)cn2c1=O [FCE 20099, 2-trans-[2-(2-methyl-phenyl)-ethenyl]-3-propyl-4-oxo-4H-pyrido[1,2-a]pyrimidine-7-carboxylic acid] | 2.02 | – |
| CCc1c(/C=C/c2ccccc2)nc2n(c1=O)C1CC1(C(=O)O)C=C2 (stereo not drawn) [K 13830, 2-trans-(2-phenyl-ethenyl)-3-ethyl-6,7-methylen-4-oxo-4H-pyrido[1,2-a]pyrimidine-7-carboxylic acid] | 1.15 | – |
| O=C(O)c1cc(=O)c2c(OCC(O)COc3cccc4oc(C(=O)O)cc(=O)c34)cccc2o1 [Disodium Cromoglycate, reference compound] | > 200 | – |
